We go through 29 compounds from patent EP0313984A1, “Substituted azolyl methyl carbinols and pharmaceutical compositions containing them” (BAYER AG, priority 1987, dated 1989).

The subject of test [1] is Dermatophyten, Schimmelpilze, Hefen. Briefly: Antimycotic in-vitro activity, serial dilution test (overall comparison). Type of test: cell-based. The conditions noted are these: compared in words with known compounds (A) and (B). Here is the method: (§1) Die in-vitro-Prüfungen wurden im Reihenverdünnungstest mit Keiminokula von durchschnittlich 5 x 10³ bis 10⁴ Keimen/ml Substrat durchgeführt. Als Nährmedium dienten • a) für Dermatophyten und Schimmelpilze: Sabouraud's milieu d'epreuve • b) für Hefen: Fleischextrakt-Traubenzucker-Bouillon.
(§2) Die Bebrütungstemperatur betrug 28 °C bis 37 °C, die Bebrütungsdauer lag bei 24 bis 96 Stunden bei Hefen und 96 Stunden bei Dermatophyten und Schimmelpilzen.

Test [2] has as its system Trichophyton mentagr. Briefly: Antimycotic in-vitro activity, serial dilution test (MIC). Format: cell-based, Trichophyton mentagrophytes. Particulars: inoculum 5 x 10³ to 10⁴ Keime/ml, Sabouraud's milieu d'epreuve, 28 °C to 37 °C, 96 h, read-out: MHK-Werte Trichophyton mentagr. Here is the method:
as §1, §2

Test [3] concerns Candida albicans. Described as above. Format: cell-based. Particulars: inoculum 5 x 10³ to 10⁴ Keime/ml, Fleischextrakt-Traubenzucker-Bouillon, 28 °C to 37 °C, 24 to 96 h, read-out: MHK-Werte Candida albicans. Here is the method: as §1, §2
In test [4] the test system is Torulopsis glabrata. The test is described as above. Type of test: cell-based. The conditions noted are these: Nakaseomyces glabratus, inoculum 5 x 10³ to 10⁴ Keime/ml, Fleischextrakt-Traubenzucker-Bouillon, 28 °C to 37 °C, 24 to 96 h, read-out: MHK-Werte Torulopsis glabrata. Here is the method:
as §1, §2

For test [5], the system named is Aspergillus fumigatus. The test is described as above. Type of test: cell-based. The conditions noted are these: inoculum 5 x 10³ to 10⁴ Keime/ml, Sabouraud's milieu d'epreuve, 28 °C to 37 °C, 96 h, read-out: MHK-Werte Aspergillus fumigatus. Here is the method: as §1, §2
The test system of test [6] is Candida. Briefly: Antimycotic in-vivo activity (oral) in mouse candidosis. Further details: species or system Mäuse vom Typ SPF-CF₁. Here is the method:
Mäuse vom Typ SPF-CF₁ werden intravenös mit 1 - 2 x 10⁶ logarithmisch wachsenden Candida-Zellen, die in physiologischer Kochsalzlösung suspendiert werden, infiziert. Eine Stunde vor und sieben Stunden nach der Infektion werden die Tiere mit jeweils 25 - 100 mg/kg Körpergewicht der Präparate oral behandelt.
Unbehandelte Tiere sterben 3 bis 6 Tage post infektionem. Die Überlebensrate am 6.Tag post infektionem beträgt bei unbehandelten Kontrolltieren etwa 5 %.

Test [7] relates to Microsporum canis. Kind of test: Antimycotic in-vitro activity, serial dilution test (MIC). Format: cell-based. Particulars: inoculum 5 x 10³ to 10⁴ Keime/ml, Sabouraud's milieu d'epreuve, 28 °C to 37 °C, 96 h, read-out: MHK-Werte Microsporum canis. Here is the method: as §1, §2
[8] abbreviates: mouse candidosis, oral, compared in words with known compounds (A) and (B).

Converted amounts (≈) assume the structure as drawn. Bounds are passed on as bounds.

As for `OC(Cn1cncn1)(c1ccc(Cl)cc1)c1csc(-c2ccccc2)n1` (stereo not drawn) [Verbindung 59], the “antimykotische Wirksamkeit” value in test [1] is recorded as “bessere antimykotische Wirksamkeit”.
Take `Cc1nc(C(O)(Cn2cncn2)c2ccc(F)cc2)cs1` (stereo not drawn) [Verbindung 1, 1-(4-Fluorphenyl)-1-(2-methylthiazol-4-yl)-2-(1,2,4-triazol-1-yl)-ethanol]: the MIC is 4 µg/mL (≈ 13.1 µM) in test [2], 15 µg/mL (≈ 49.3 µM) in test [3], over 64 µg/mL in test [4] and 32 µg/mL (≈ 105 µM) in test [5]. For the same compound, the “antimykotische Wirksamkeit” value in test [1] was “bessere antimykotische Wirksamkeit”.
On to `OC(Cn1cncn1)(c1ccc(Cl)cc1)c1csc(COc2ccc(Cl)cc2Cl)n1` (stereo not drawn) [Verbindung 26], for which the “antimykotische Wirksamkeit” value in test [1] was “bessere antimykotische Wirksamkeit”.
On the same count and under the same terms, under `OC(Cn1cncn1)(c1ccc(Cl)cc1)c1csc(Nc2ccccc2)n1` (stereo not drawn) [Verbindung 45] stands “bessere antimykotische Wirksamkeit”.
For the compound `OC(Cn1cncn1)(c1ccc(Cl)cc1)c1csc(-c2ccc(-n3cncn3)cc2)n1` (stereo not drawn) [Verbindung 42], the “antimykotische Wirksamkeit” value in test [1] is on record as “bessere antimykotische Wirksamkeit”. In addition, the Wirkung result in test [6] (setting [8]) is given as “bessere Wirkung”.
Regarding `OC(Cn1ccnc1)(c1ccc(F)cc1)c1csc(-c2ccccc2)n1` (stereo not drawn) [Verbindung 27], in test [1], the “antimykotische Wirksamkeit” value was “bessere antimykotische Wirksamkeit”.
Take `Cc1cccc(-c2nc(C(O)(Cn3cncn3)c3ccc(Cl)cc3)cs2)c1` (stereo not drawn) [Verbindung 36]: the “antimykotische Wirksamkeit” value in test [1] is reported as “bessere antimykotische Wirksamkeit”.
Same read-out and setting: then `OC(Cn1cncn1)(c1ccc(F)cc1)c1csc(-c2ccccc2)n1` (stereo not drawn) [Verbindung 28], with “bessere antimykotische Wirksamkeit”.
The same measure, in the same setting: under `OC(Cn1ccnc1)(c1ccc(Cl)cc1)c1csc(COc2ccc(Cl)cc2Cl)n1` (stereo not drawn) [Verbindung 25] stands “bessere antimykotische Wirksamkeit”.
Regarding `Cc1ccc(-c2nc(C(O)(Cn3ccnc3)c3ccc(Cl)cc3)cs2)cc1` (stereo not drawn) [Verbindung 14], the MIC in test [2] is under 1 µg/mL; in test [3] it was 2 µg/mL (≈ 5.05 µM); in test [4], 2 µg/mL (≈ 5.05 µM); in test [7], 8 µg/mL (≈ 20.2 µM); in test [5], 4 µg/mL (≈ 10.1 µM). Besides, the “antimykotische Wirksamkeit” value in test [1] is listed as “bessere antimykotische Wirksamkeit”.
Turning to `CC(C)(n1cncn1)C(O)(Cn1ccnc1)c1ccc(F)cc1` (stereo not drawn) [(B), 2-(4-Fluorphenyl)-3-methyl-1-imidazol-1-yl-3-(1,2,4-triazol-1-yl)-butan-2-ol, reference compound], the MIC in test [2], in test [3], in test [4] and in test [5] was over 64 µg/mL in each case. Also, the Wirkung result in test [6] (mice infected i.v. with 1 - 2 x 10⁶ Candida cells, 25 - 100 mg/kg oral 1 h before and 7 h after infection, survival at day 6 p.i., class symbols, key not readable) was “k.w”.
Regarding `OC(Cn1cncn1)(c1ccc(Cl)cc1)c1csc(-c2ccc(Cl)cc2)n1` (stereo not drawn) [Verbindung 21], the “antimykotische Wirksamkeit” value in test [1] is given as “bessere antimykotische Wirksamkeit”. Besides, the Wirkung entry in test [6] (setting [8]) was “bessere Wirkung”.
Take `OC(Cn1ccnc1)(c1ccc(F)cc1)c1csc(-c2ccc(Cl)cc2)n1` (stereo not drawn) [Verbindung 39]: the “antimykotische Wirksamkeit” value in test [1] is recorded as “bessere antimykotische Wirksamkeit”.
Turning to `OC(Cn1cncn1)(c1ccc(Cl)cc1)c1csc(-c2ccc(F)c(Cl)c2)n1` (stereo not drawn) [Verbindung 47], the “antimykotische Wirksamkeit” value in test [1] is reported as “bessere antimykotische Wirksamkeit”.
As to `Cc1ccccc1-c1nc(C(O)(Cn2cncn2)c2ccc(Cl)cc2)cs1` (stereo not drawn) [Verbindung 52], the “antimykotische Wirksamkeit” value in test [1] is “bessere antimykotische Wirksamkeit”.
`Cc1ccc(-c2nc(C(O)(Cn3cncn3)c3ccc(Cl)cc3)cs2)cc1` (stereo not drawn) [Verbindung 15]: the MIC in test [2] is under 1 µg/mL; in test [3], 4 µg/mL (≈ 10.1 µM); in test [4], 4 µg/mL (≈ 10.1 µM); in test [7], 8 µg/mL (≈ 20.2 µM); in test [5] it was 4 µg/mL (≈ 10.1 µM). In test [1], the “antimykotische Wirksamkeit” value is “bessere antimykotische Wirksamkeit”.
With `OC(Cn1ccnc1)(c1ccc(Cl)cc1)c1csc(N2CCCCC2)n1` (stereo not drawn) [Verbindung 18], the MIC in test [2] is under 1 µg/mL; in test [3], 8 µg/mL (≈ 20.6 µM); in test [4], 16 µg/mL (≈ 41.1 µM); in test [7] it was 64 µg/mL (≈ 165 µM); in test [5], 32 µg/mL (≈ 82.3 µM). Moreover, the “antimykotische Wirksamkeit” value in test [1] is “bessere antimykotische Wirksamkeit”.
On to `Cc1ccc(C(O)(Cn2ccnc2)c2csc(-c3ccc(Cl)cc3)n2)cc1` (stereo not drawn) [Verbindung 3], for which the MIC in test [2] is under 1 µg/mL; in test [3], under 1 µg/mL; in test [4] it was 4 µg/mL (≈ 10.1 µM); in test [7] it was 16 µg/mL (≈ 40.4 µM); in test [5], 16 µg/mL (≈ 40.4 µM). For the same compound, the “antimykotische Wirksamkeit” value in test [1] is recorded as “bessere antimykotische Wirksamkeit”.
For `CCN(CC)c1nc(C(O)(Cn2cncn2)c2ccc(Cl)cc2)cs1` (stereo not drawn) [Verbindung 49], the “antimykotische Wirksamkeit” value in test [1] was “bessere antimykotische Wirksamkeit”.
Turning to `OC(Cn1cncn1)(c1ccc(F)cc1)c1csc(-c2ccc(Cl)cc2)n1` (stereo not drawn) [Verbindung 40], the “antimykotische Wirksamkeit” value in test [1] is on record as “bessere antimykotische Wirksamkeit”. Besides, in test [6] (setting [8]), the Wirkung result is given as “bessere Wirkung”.
On to `Cc1ccc(C(O)(Cn2cncn2)c2csc(C)n2)cc1` (stereo not drawn) [Verbindung 57], for which the Wirkung result in test [6] (setting [8]) is “bessere Wirkung”.
Regarding `OC(Cn1ccnc1)(c1ccc(Cl)cc1)c1csc(-c2ccccc2)n1` (stereo not drawn) [Verbindung 62], the “antimykotische Wirksamkeit” value in test [1] is “bessere antimykotische Wirksamkeit”.
Take `OC(Cn1ccnc1)(c1ccc(Cl)cc1)c1csc(-c2ccc(-n3ccnc3)c(Cl)c2)n1` (stereo not drawn) [Verbindung 22]: the “antimykotische Wirksamkeit” value in test [1] is “bessere antimykotische Wirksamkeit”. In addition, the Wirkung entry in test [6] (setting [8]) is “bessere Wirkung”.
As to `OC(Cn1cncn1)(c1ccc(F)cc1)c1csc(-c2ccc(F)cc2)n1` (stereo not drawn) [Verbindung 44], the “antimykotische Wirksamkeit” value in test [1] was “bessere antimykotische Wirksamkeit”.
On the same count and under the same terms, then `OC(Cn1ccnc1)(c1ccc(Cl)cc1)c1csc(-c2ccc(Cl)cc2)n1` (stereo not drawn) [Verbindung 20], with “bessere antimykotische Wirksamkeit”.
Turning to `OC(Cn1cncn1)(c1ccc(Cl)cc1)c1csc(-c2ccc(F)cc2)n1` (stereo not drawn) [Verbindung 41], in test [1], the “antimykotische Wirksamkeit” value is on record as “bessere antimykotische Wirksamkeit”. Further, the Wirkung entry in test [6] (setting [8]) is on record as “bessere Wirkung”.
Turning to `OC(Cn1cncn1)(Cn1cncn1)c1ccccc1` [(A), 2-Phenyl-1,3-bis-(1,2,4-triazol-1-yl)-propan-2-ol, reference compound], the MIC in test [2] was 64 µg/mL (≈ 237 µM); in test [3] it was 64 µg/mL (≈ 237 µM); in test [4] it was over 64 µg/mL; in test [5] it was over 64 µg/mL.
Regarding `OC(Cn1cncn1)(c1ccc(Cl)cc1)c1csc(-c2ccc(-n3cncn3)c(Cl)c2)n1` (stereo not drawn) [Verbindung 23], the “antimykotische Wirksamkeit” value in test [1] was “bessere antimykotische Wirksamkeit”. Besides, the Wirkung result in test [6] (setting [8]) is given as “bessere Wirkung”.
As for `CN(c1ccccc1)c1nc(C(O)(Cn2cncn2)c2ccc(Cl)cc2)cs1` (stereo not drawn) [Verbindung 43], in test [1], the “antimykotische Wirksamkeit” value is given as “bessere antimykotische Wirksamkeit”.
